# Source: PubChem BioAssay (NCI)
#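 Cultured in 96-well plates, cells were exposed to test compound for 48 hours across five concentrations. GI50: concentration for 50% inhibition of growth. TGI: total growth inhibition.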
# Experiments:
# Assay in all cases: growth of human tumour cells (NCI), 48 h
# A549 NSCLC = system: A549 NSCLC
# RXF 393 renal = system: RXF 393 renal
# A498 renal = system: A498 renal
# HS 578T breast = system: HS 578T breast
# NCI-H23 lung = system: NCI-H23 lung
# M14 melanoma = system: M14 melanoma
# SK-MEL-2 melanoma = system: SK-MEL-2 melanoma
# NCI-H226 lung = system: NCI-H226 lung
# SNB-75 CNS = system: SNB-75 CNS
# UACC-257 melanoma = system: UACC-257 melanoma
# NCI/ADR-RES ovarian = system: NCI/ADR-RES ovarian
# NCI-H460 lung = system: NCI-H460 lung
# MDA-MB-435 = system: MDA-MB-435
# SW-620 colon = system: SW-620 colon
# HOP-62 NSCLC = system: HOP-62 NSCLC
# U251 CNS = system: U251 CNS
# SK-OV-3 ovarian = system: SK-OV-3 ovarian
# HCC-2998 colon = system: HCC-2998 colon
# OVCAR-4 ovarian = system: OVCAR-4 ovarian
# T-47D breast = system: T-47D breast
# MOLT-4 leukemia = system: MOLT-4 leukemia
# HT29 colon = system: HT29 colon
# CAKI-1 renal = system: CAKI-1 renal
# DU-145 prostate = system: DU-145 prostate
# K-562 leukemia = system: K-562 leukemia
# KM12 colon = system: KM12 colon
# MCF7 breast = system: MCF7 breast
# OVCAR-3 ovarian = system: OVCAR-3 ovarian
# COLO 205 colon = system: COLO 205 colon
# SNB-19 CNS = system: SNB-19 CNS
# MDA-MB-231 breast = system: MDA-MB-231 breast
# BT-549 breast = system: BT-549 breast
# TK-10 renal = system: TK-10 renal
# OVCAR-8 ovarian = system: OVCAR-8 ovarian
# CCRF-CEM leukemia = system: CCRF-CEM leukemia
# PC-3 prostate = system: PC-3 prostate
# SF-295 CNS = system: SF-295 CNS
# HCT-15 colon = system: HCT-15 colon
# SF-268 CNS = system: SF-268 CNS
# EKVX NSCLC = system: EKVX NSCLC
# MALME-3M melanoma = system: MALME-3M melanoma
# SK-MEL-28 melanoma = system: SK-MEL-28 melanoma
# UACC-62 melanoma = system: UACC-62 melanoma
# SR leukemia = system: SR leukemia
# HL-60(TB) leukemia = system: HL-60(TB) leukemia
# OVCAR-5 ovarian = system: OVCAR-5 ovarian
# HOP-92 NSCLC = system: HOP-92 NSCLC
# IGROV1 ovarian = system: IGROV1 ovarian
# SK-MEL-5 melanoma = system: SK-MEL-5 melanoma
# SN12C renal = system: SN12C renal
# SF-539 CNS = system: SF-539 CNS
# HCT-116 colon = system: HCT-116 colon
smiles,measurement,setting,value
O=C(CSc1nnc(-c2ccc(Cl)cc2)n1-c1ccccc1)Nc1cccc(F)c1,GI50,A549 NSCLC,2.77 µM
same,TGI,A549 NSCLC,> 100 µM
same,GI50,RXF 393 renal,2.86 µM
same,TGI,RXF 393 renal,> 36 µM
same,GI50,A498 renal,4.5 µM
same,TGI,A498 renal,73.9 µM
same,GI50,HS 578T breast,3.3 µM
same,TGI,HS 578T breast,> 100 µM
same,GI50,NCI-H23 lung,5.14 µM
same,TGI,NCI-H23 lung,> 100 µM
same,GI50,M14 melanoma,> 100 µM
same,TGI,M14 melanoma,> 100 µM
same,GI50,SK-MEL-2 melanoma,> 100 µM
same,TGI,SK-MEL-2 melanoma,> 100 µM
same,GI50,NCI-H226 lung,4.11 µM
same,TGI,NCI-H226 lung,> 100 µM
same,GI50,SNB-75 CNS,2.09 µM
same,TGI,SNB-75 CNS,> 30.5 µM
same,GI50,UACC-257 melanoma,> 100 µM
same,TGI,UACC-257 melanoma,> 100 µM
same,GI50,NCI/ADR-RES ovarian,2.26 µM
same,TGI,NCI/ADR-RES ovarian,8.77 µM
same,GI50,NCI-H460 lung,1.49 µM
same,GI50,MDA-MB-435,> 100 µM
same,TGI,MDA-MB-435,> 100 µM
same,GI50,SW-620 colon,5 µM
same,TGI,SW-620 colon,> 100 µM
same,GI50,HOP-62 NSCLC,3.18 µM
same,TGI,HOP-62 NSCLC,> 26.4 µM
same,GI50,U251 CNS,1.62 µM
same,TGI,U251 CNS,4.46 µM
same,GI50,SK-OV-3 ovarian,10.2 µM
same,TGI,SK-OV-3 ovarian,> 100 µM
same,GI50,HCC-2998 colon,> 30.3 µM
same,TGI,HCC-2998 colon,> 100 µM
same,GI50,OVCAR-4 ovarian,> 100 µM
same,TGI,OVCAR-4 ovarian,> 100 µM
same,GI50,T-47D breast,1.58 µM
same,TGI,T-47D breast,> 100 µM
same,GI50,MOLT-4 leukemia,> 100 µM
same,TGI,MOLT-4 leukemia,> 100 µM
same,GI50,HT29 colon,> 27 µM
same,TGI,HT29 colon,> 100 µM
same,GI50,CAKI-1 renal,2.89 µM
same,TGI,CAKI-1 renal,> 100 µM
same,GI50,DU-145 prostate,> 30.3 µM
same,TGI,DU-145 prostate,> 100 µM
same,GI50,K-562 leukemia,> 100 µM
same,TGI,K-562 leukemia,> 100 µM
same,GI50,KM12 colon,> 21 µM
same,TGI,KM12 colon,> 100 µM
same,GI50,MCF7 breast,3.47 µM
same,TGI,MCF7 breast,> 100 µM
same,GI50,OVCAR-3 ovarian,4.11 µM
same,TGI,OVCAR-3 ovarian,73.9 µM
same,GI50,COLO 205 colon,> 100 µM
same,TGI,COLO 205 colon,> 100 µM
same,GI50,SNB-19 CNS,6.27 µM
same,TGI,SNB-19 CNS,> 100 µM
same,GI50,MDA-MB-231 breast,2.36 µM
same,TGI,MDA-MB-231 breast,> 24.2 µM
same,GI50,BT-549 breast,> 100 µM
same,TGI,BT-549 breast,> 100 µM
same,GI50,TK-10 renal,4.65 µM
same,TGI,TK-10 renal,> 100 µM
same,GI50,OVCAR-8 ovarian,3.03 µM
same,TGI,OVCAR-8 ovarian,> 100 µM
same,GI50,CCRF-CEM leukemia,> 100 µM
same,TGI,CCRF-CEM leukemia,> 100 µM
same,GI50,PC-3 prostate,> 100 µM
same,TGI,PC-3 prostate,> 100 µM
same,GI50,SF-295 CNS,3.98 µM
same,TGI,SF-295 CNS,> 70.6 µM
same,GI50,HCT-15 colon,> 100 µM
same,TGI,HCT-15 colon,> 100 µM
same,GI50,SF-268 CNS,> 21.4 µM
same,TGI,SF-268 CNS,> 100 µM
same,GI50,EKVX NSCLC,> 23 µM
same,TGI,EKVX NSCLC,> 100 µM
same,GI50,MALME-3M melanoma,3.9 µM
same,TGI,MALME-3M melanoma,> 100 µM
same,GI50,SK-MEL-28 melanoma,> 100 µM
same,TGI,SK-MEL-28 melanoma,> 100 µM
same,GI50,UACC-62 melanoma,> 100 µM
same,TGI,UACC-62 melanoma,> 100 µM
same,GI50,SR leukemia,> 35.3 µM
same,TGI,SR leukemia,> 100 µM
same,GI50,HL-60(TB) leukemia,> 100 µM
same,TGI,HL-60(TB) leukemia,> 100 µM
same,TGI,OVCAR-5 ovarian,> 100 µM
same,GI50,HOP-92 NSCLC,4 µM
same,TGI,HOP-92 NSCLC,> 100 µM
same,GI50,IGROV1 ovarian,3.2 µM
same,TGI,IGROV1 ovarian,> 100 µM
same,GI50,SK-MEL-5 melanoma,> 55.4 µM
same,TGI,SK-MEL-5 melanoma,> 100 µM
same,GI50,SN12C renal,1.91 µM
same,TGI,SN12C renal,6.26 µM
same,GI50,SF-539 CNS,2.33 µM
same,TGI,SF-539 CNS,> 22.4 µM
same,GI50,HCT-116 colon,2.38 µM
same,TGI,HCT-116 colon,> 100 µM
